Assay results taken from US10350315B2, “Quinoline-3-carboxamide compounds and their use in diagnosis” (Westfaelische Wihelms-Universitaet Muenster, priority 2014, dated 2019).

Target: T1, S100A9 (Mus musculus, UniProt P31725)
T1 construct: from tissue; host or cells: living mice (inflamed ear, joints) and explanted mouse heart, aorta and lungs
T1 sequence (P31725 2-113 limits assumed): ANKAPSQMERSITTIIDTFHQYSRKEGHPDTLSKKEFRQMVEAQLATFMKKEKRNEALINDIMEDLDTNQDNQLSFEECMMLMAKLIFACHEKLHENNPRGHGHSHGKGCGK
Assay: Myocardial infarction mouse model, FRI of the explanted heart
Assay type: in vivo, C57BI/6 mouse
Details: one day post LAD occlusion, two hours after i.v. injection of 2 nmol
Method: FIG. 7: Accumulation of Cy5.5-CES271 in a mouse model of myocardial infarction. One day post occlusion of the LAD in a C57BI/6 mouse: FRI of the explanted heart (longitudinal mid-infarction cut) two hours after i.v. injection of 2 nmol Cy5.5-CES271. […] Furthermore, absence of S100A9 in the remote myocardium (RM) is accompanied by the lack of Cy5.5-CES271.
Myocardial infarction was induced by opening the chest of a mouse and transient ligation of the left coronary artery for 60 minutes. The ischemic event triggers acute inflammatory response to the tissue injury in the first hours/days followed by a remodeling process (involving less intense inflammatory processes) after about one week. FRI was performed one day after the surgical intervention to assess the intense acute inflammatory response and the images in FIG. 7 were acquired two hours after injection of 2 nmol Cy5.5-CES-271. […] FRI of the explanted heart (longitudinal mid-infarction cut) two hours after i.v. injection of 2 nmol Cy5.5-CES271 is shown.

3-ethyl-2((1E,3E,5E)-5-(3-(1-(5-ethyl-4-hydroxy-1-methyl-2-oxo-1,2-dihydroquinolin-3-yl)-1,15-dioxo-2-phenyl-5,8,11-trioxa-2,14-diazanonadecan-19-yl)-1,1-dimethyl-6,8-disulfonato-1H-benzo[e]indol-2(3H)-ylidene)penta-1,3-dien-1-yl)-1,1-dimethyl-1H-benzo[e]indol-3-ium-6,8-disulfonate [Cy5.5-CES271]
Accumulation in the myocardial infarction (MI): accumulates in the myocardial infarction
Accumulation in the remote myocardium (RM): lack of Cy5.5-CES271 accumulation
